Reference: patent US20230014445A1, “ALLOSTERIC CHROMENONE INHIBITORS OF PHOSPHOINOSITIDE 3-KINASE (PI3K) FOR THE TREATMENT OF DISEASE” (Petra Pharma Corporation, priority 2021, published 2023)

Legend:
[1] = target: T1, human full length PIK3KA H1047R mutant (p110α/p85α complex) (Homo sapiens, UniProt P42336, H1047R); assay: PI3K-Alpha Kinase (PIK3CA) biochemical activity, H1047R mutant (ADP-Glo); details: 20 uM ATP
T1 construct: Recombinant, catalytically active human full length PIK3KA Wild-type and H1047R mutant were purchased; 6xHis (N); purchased EMD Millipore Sigma 14-792M
Text: (§1) PI3K-Alpha Kinase (PIK3CA) Activity, Wild-Type and H1047R Mutant and Determining IC50 Values for Inhibitors
(§2) Recombinant, catalytically active human full length PIK3KA Wild-type and H1047R mutant were purchased as 1:1 complex of N-terminal 6×his tagged p110α (catalytic) and untagged p85α, (regulatory subunit) from EMD Millipore Sigma (cat. no. 14-602M and 14-792M, respectively). PIP2diC8 (Avanti Polar Lipids Inc., cat. no. 850185) or Soy PI (Avanti Polar Lipids Inc., cat. No. 840044P) was used as lipid substrate. PIP2diC8 or PI lyophilized powder was dissolved in milliQ water to a concentration of 1 mM just before use. 10 mM stock compounds in DMSO were serially diluted 1:3 to generate a 10-point curve and plated using an acoustic liquid handler system (Echo 550 series instrument, Labcyte). A 10× intermediate compound plate (200 uM starting compound concentration and 10% DMSO) was prepared before starting the reaction. A typical reaction mixture (50 uL) comprised 40 mM HEPES buffer, pH 7.4, 25 mM MgCl2, 0.01% v/v triton-X-100, 1% v/v DMSO, 20 mM NaCl, 1-5 nM WT or H1047R PI3K protein, 20 uM ATP, and 50 uM PIP2diC8 or Soy PI. 1% DMSO buffer alone without test compound was employed as MAX control (full activity in the absence of any inhibitor), and no enzyme control was used to determine the level of background Adenosine 5′-diphosphate (ADP) (MIN control). First, Wild-type (WT) and H1047R mutant protein in kinase buffer with all components except ATP were incubated with or without compound at 27° C. for 1 h. After the pre-incubation, the reaction was initiated by the addition of […] (20 uM final concentration). The reaction was allowed to proceed until about 10% conversion of ATP (2 uM ADP) at 27° C. After that time, 5 uL of reaction was mixed with 5 uL of ADP-Kinase Glo Reagent (ADP-Glo Kinase assay kit, Promega cat. no. V9102) supplemented with MgCl2 10 mM to stop the reaction and deplete the remaining ATP for 40 min at room temperature. Then, 10 uL of Kinase Detection Reagent (ADP-Glo Kinase assay kit, Promega cat. no. V9102) was added to simultaneously convert ADP to ATP and allow the newly synthesized ATP to be measured using a luciferase/luciferin reaction. After 30 min at room temperature the light generated was measured using a luminometer (EnVision plate reader, Perkin Elmer). Process data through Genedata-Screener tool. Relative IC50 values are determined using luminescence units by calculating percent inhibition with respect to on-plate “MIN” and “MAX” controls. Data was analyzed using a 4-parameter nonlinear logistic equation (four-parameter logistic concentration-response curve):
(§3) Y=bot+[(top−bot)/1+(x/IC50)slope]
(§4) where Y=% inhibition, X=concentration yielding y % inhibition, Bottom=minimum value of y attained by curve, Top=maximum value of y attained by curve and Slope=steepness of curve at IC50.
(§5) % Inh=[(median Max−x/median Max−median Min)]·100
(§6) IC50: concentration of compound that reduces a given response (ligand binding, enzyme response) by 50%. IC50 relative: concentration giving half the compound's maximum response.
(§7) For IC50 values shown in Table A, “A” means IC50<0.5 μM; “B” means IC50 ranging between 0.5 μM and 1.0 μM; “C” means IC50 ranging between 1 μM and 5 μM; “D” means IC50 ranging between 5 μM and 10 μM; “E” means IC50>10 μM.

[2] = target: T2, human full length PIK3KA Wild-type (p110α/p85α complex) (Homo sapiens, UniProt P42336); assay: PI3K-Alpha Kinase (PIK3CA) biochemical activity, wild-type (ADP-Glo); details: 20 uM ATP
T2 construct: Recombinant, catalytically active human full length PIK3KA Wild-type and H1047R mutant were purchased; 6xHis (N); purchased EMD Millipore Sigma 14-602M
Text: as §1, §2, §3, §4, §5, §6, §7

T1 sequence (P42336 whole entry H1047R): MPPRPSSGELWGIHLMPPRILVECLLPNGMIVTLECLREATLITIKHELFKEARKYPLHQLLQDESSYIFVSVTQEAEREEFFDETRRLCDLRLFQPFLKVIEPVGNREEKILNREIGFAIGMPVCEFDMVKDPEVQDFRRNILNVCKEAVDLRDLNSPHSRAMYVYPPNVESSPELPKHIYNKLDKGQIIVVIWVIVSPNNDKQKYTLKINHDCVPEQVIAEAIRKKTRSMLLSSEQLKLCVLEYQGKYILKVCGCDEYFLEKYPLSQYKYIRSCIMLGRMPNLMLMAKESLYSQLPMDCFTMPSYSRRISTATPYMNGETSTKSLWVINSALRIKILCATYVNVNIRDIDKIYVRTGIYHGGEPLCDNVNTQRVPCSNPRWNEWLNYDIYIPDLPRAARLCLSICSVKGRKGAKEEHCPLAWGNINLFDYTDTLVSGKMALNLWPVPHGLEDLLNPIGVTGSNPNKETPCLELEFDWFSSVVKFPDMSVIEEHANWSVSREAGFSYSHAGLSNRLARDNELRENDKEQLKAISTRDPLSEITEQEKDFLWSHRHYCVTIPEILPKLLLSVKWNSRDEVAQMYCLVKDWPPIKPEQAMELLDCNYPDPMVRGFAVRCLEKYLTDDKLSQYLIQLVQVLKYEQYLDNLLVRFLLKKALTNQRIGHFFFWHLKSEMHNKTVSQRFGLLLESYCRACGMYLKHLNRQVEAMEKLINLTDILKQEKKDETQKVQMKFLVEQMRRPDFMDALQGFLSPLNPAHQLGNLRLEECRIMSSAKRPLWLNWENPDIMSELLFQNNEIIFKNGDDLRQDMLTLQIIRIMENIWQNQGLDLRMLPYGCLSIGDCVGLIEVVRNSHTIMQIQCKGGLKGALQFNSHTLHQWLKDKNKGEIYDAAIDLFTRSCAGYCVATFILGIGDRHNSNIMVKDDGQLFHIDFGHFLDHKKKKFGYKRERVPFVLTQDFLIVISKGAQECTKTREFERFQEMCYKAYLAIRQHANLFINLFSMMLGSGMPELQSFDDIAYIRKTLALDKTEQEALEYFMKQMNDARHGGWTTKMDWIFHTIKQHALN
T1 sequence (P27986 whole entry partner): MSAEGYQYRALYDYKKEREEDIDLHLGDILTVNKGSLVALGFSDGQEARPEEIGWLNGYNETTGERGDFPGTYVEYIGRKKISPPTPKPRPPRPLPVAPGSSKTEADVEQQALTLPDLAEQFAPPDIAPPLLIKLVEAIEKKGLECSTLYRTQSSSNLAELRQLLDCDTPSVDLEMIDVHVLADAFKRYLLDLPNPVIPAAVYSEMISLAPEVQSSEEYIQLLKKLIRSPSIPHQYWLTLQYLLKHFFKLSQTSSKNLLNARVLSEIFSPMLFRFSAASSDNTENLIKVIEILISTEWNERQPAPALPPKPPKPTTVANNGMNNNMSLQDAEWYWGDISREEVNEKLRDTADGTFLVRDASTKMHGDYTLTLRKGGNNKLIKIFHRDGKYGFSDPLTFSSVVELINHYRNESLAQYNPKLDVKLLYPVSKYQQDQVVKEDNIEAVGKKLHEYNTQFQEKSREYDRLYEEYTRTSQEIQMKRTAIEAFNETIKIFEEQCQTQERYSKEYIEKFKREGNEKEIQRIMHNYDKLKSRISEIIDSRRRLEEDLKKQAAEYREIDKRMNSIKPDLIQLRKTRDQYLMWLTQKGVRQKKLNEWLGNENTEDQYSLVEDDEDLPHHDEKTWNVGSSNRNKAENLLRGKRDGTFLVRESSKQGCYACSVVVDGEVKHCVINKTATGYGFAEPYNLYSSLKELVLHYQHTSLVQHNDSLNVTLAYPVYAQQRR

| Structure (SMILES) | IC50 ([1]; Soy PI lipid substrate) [nM] | IC50 ([2]; Soy PI lipid substrate) [nM] | IC50 ([1]; PIP2diC8 lipid substrate) [nM] | IC50 ([2]; PIP2diC8 lipid substrate) [nM] |
| --- | --- | --- | --- | --- |
| CC(Nc1ccc(Cl)nc1C(=O)O)c1cc(C(F)(F)F)cc2c(=O)cc(-c3cnn(-c4ccc(C#N)cc4)c3)oc12 (single isomer, unassigned; isomer 1) [Example 96, 6-Chloro-3-[1-[2-[1-(4-cyanophenyl)pyrazol-4-yl]-4-oxo-6-(trifluoromethyl)chromen-8-yl]ethylamino]pyridine-2-carboxylic acid, Isomer 1] | < 500 | 1000 to 5000 |  |  |
| CC(Nc1ccccc1C(=O)O)c1cc(C(F)(F)F)cc2c(=O)cc(-c3cnn(-c4ccc(C#N)cc4)c3)oc12 (single isomer, unassigned; isomer 1) [Example 99, 2-[1-2-[1-(4-Cyanophenyl)pyrazol-4-yl]-4-oxo-6-(trifluoromethyl)chromen-8-yl]ethylamino]benzoic acid, Isomer 1] | 500 to 1000 | 1000 to 5000 |  |  |
| Cc1cc(C(C)Nc2ccccc2C(=O)O)c2oc(-c3ncccn3)cc(=O)c2c1 (single isomer, unassigned; isomer 2) [Example 3, 2-[1-(6-Methyl-4-oxo-2-pyrimidin-2-yl-chromen-8-yl)ethylamino]benzoic acid, Isomer 2] | < 500 | > 10000 |  |  |
| Cc1cc(C(C)Nc2ccccc2C(=O)O)c2oc(-c3cccnc3)cc(=O)c2c1 (single isomer, unassigned; isomer 2) [Example 14, 2-[1-[6-Methyl-4-oxo-2-(3-pyridyl)chromen-8-yl]ethylamino]benzoic acid, Isomer 2] | < 500 | 1000 to 5000 |  |  |
| COc1ccc(-c2cc(=O)c3cc(C)cc(C(C)Nc4ccccc4C(=O)O)c3o2)cn1 (single isomer, unassigned; isomer 2) [Example 20, 2-[1-[2-(6-Methoxy-3-pyridyl)-6-methyl-4-oxo-chromen-8-yl]ethylamino]benzoic acid, Isomer 2] | < 500 | 1000 to 5000 |  |  |
| Cc1cc(C(C)Nc2ccccc2C(=O)O)c2oc(-c3cnc(C4CC4)nc3)cc(=O)c2c1 (single isomer, unassigned; isomer 2) [Example 26, 2-[1-[2-(2-Cyclopropylpyrimidin-5-yl)-6-methyl-4-oxo-chromen-8-yl]ethylamino]benzoic acid, Isomer 2] | < 500 | 5000 to 10000 |  |  |
| Cc1cc(C(C)Nc2ccccc2C(=O)O)c2oc(-c3ccc(OC(C)C)nc3)cc(=O)c2c1 (single isomer, unassigned; isomer 2) [Example 31, 2-[1-[2-(6-Isopropoxy-3-pyridyl)-6-methyl-4-oxo-chromen-8-yl]ethylamino]benzoic acid, Isomer 2] |  |  | < 500 | 1000 to 5000 |
| Cc1cc(C(C)Nc2ccccc2C(=O)O)c2oc(-c3ccc(C(F)(F)F)nc3)cc(=O)c2c1 (single isomer, unassigned; isomer 2) [Example 38, 2-[1-[6-Methyl-4-oxo-2-[6-(trifluoromethyl)-3-pyridyl]chromen-8-yl]ethylamino]benzoic acid, Isomer 2] | < 500 | > 10000 |  |  |

Other lines, results leading:

| IC50 ([1]; Soy PI lipid substrate) [nM] | IC50 ([2]; Soy PI lipid substrate) [nM] | IC50 ([1]; PIP2diC8 lipid substrate) [nM] | IC50 ([2]; PIP2diC8 lipid substrate) [nM] | Structure (SMILES) |
| --- | --- | --- | --- | --- |
| < 500 | 5000 to 10000 |  |  | Cc1cc(C(C)Nc2ccc(Cl)c(F)c2C(=O)O)c2oc(-c3ccccn3)cc(=O)c2c1 (single isomer, unassigned; isomer 1) [Example 78, 3-Chloro-2-fluoro-6-[1-[6-methyl-4-oxo-2-(2-pyridyl)chromen-8-yl]ethylamino]benzoic acid, Isomer 1] |
|  |  | > 10000 | > 10000 | Cc1cc(C(C)Nc2ccccc2C(=O)O)c2oc(-c3cnccn3)cc(=O)c2c1 (single isomer, unassigned; isomer 2) [Example 16, 2-[1-(6-Methyl-4-oxo-2-pyrazin-2-yl-chromen-8-yl)ethylamino]benzoic acid, Isomer 2] |
|  |  | > 10000 | > 10000 | Cc1cc(C(C)Nc2ccccc2C(=O)O)c2oc(-c3ccccn3)cc(=O)c2c1 (single isomer, unassigned; isomer 2) [Example 18, 2-[1-[6-Methyl-4-oxo-2-(2-pyridyl)chromen-8-yl]ethylamino]benzoic acid, Isomer 2] |
